Measured values reported in PubChem BioAssay AID212 (DTP/NCI, 2004).
Where “and” joins values, the source holds several entries; their conditions need not be identical. Equal entries are not always repeated. Inconclusive results are not listed.

System: BDF1 mice, colon carcinoma 38 sc, T/C %
Experiment: NCI In Vivo Anticancer Drug Screen. Data for tumor model Colon Carcinoma 38 (subcutaneous) in B6D2F1 (BDF1) mice
Conditions: endpoint: median tumor weight (est.), higher = larger tumour
Outline: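 Ratio of survival or tumor size, compound-treated animals relative to vehicle controls, in tumor-bearing mice.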

[1] = dose: 12.5 mg/kg/injection, schedule: Q07DX002 (ip), vehicle: Klucel (hydroxypropylcellulose) (HPC)
[2] = dose: 25.0 mg/kg/injection, schedule: Q07DX002 (ip), vehicle: Klucel (hydroxypropylcellulose) (HPC)
[3] = dose: 50.0 mg/kg/injection, schedule: Q07DX002 (ip), vehicle: Klucel (hydroxypropylcellulose) (HPC)
[4] = dose: 100.0 mg/kg/injection, schedule: Q07DX002 (ip), vehicle: Klucel (hydroxypropylcellulose) (HPC)
[5] = dose: 200.0 mg/kg/injection, schedule: Q07DX002 (ip), vehicle: Klucel (hydroxypropylcellulose) (HPC)
[6] = dose: 400.0 mg/kg/injection, schedule: Q07DX002 (ip), vehicle: Klucel (hydroxypropylcellulose) (HPC)
[7] = dose: 100.0 mg/kg/injection, schedule: Q07DX002 (ip), vehicle: saline
[8] = dose: 25.0 mg/kg/injection, schedule: Q07DX002 (ip), vehicle: saline with Tween-80
[9] = dose: 50.0 mg/kg/injection, schedule: Q07DX002 (ip), vehicle: saline with Tween-80
[10] = dose: 100.0 mg/kg/injection, schedule: Q07DX002 (ip), vehicle: saline with Tween-80
[11] = dose: 12.5 mg/kg/injection, schedule: Q07DX002 (ip), vehicle: saline with Tween-80
[12] = dose: 200.0 mg/kg/injection, schedule: Q07DX002 (ip), vehicle: saline with Tween-80
[13] = dose: 2.5 mg/kg/injection, schedule: Q07DX002 (ip), vehicle: saline
[14] = dose: 10.0 mg/kg/injection, schedule: Q07DX002 (ip), vehicle: suspension in saline

C[C@]12C=CC(=O)C=C1CC[C@@H]1[C@@H]2C(=O)C[C@@]2(C)[C@H]1CC[C@]2(O)C(=O)CO was tested, and the T/C [1] was 108 % of control, the T/C [2] was 115 % of control and the T/C (dose: 25.0 mg/kg/injection, schedule: Q07DX003 (ip), vehicle: Klucel (hydroxypropylcellulose) (HPC)) was 97 % of control. The T/C [3] was 93 % of control and 102 % of control, the T/C (dose: 50.0 mg/kg/injection, schedule: Q07DX003 (ip), vehicle: Klucel (hydroxypropylcellulose) (HPC)) was 100 % of control and the T/C [4] was 110 % of control. For the same molecule, the T/C (dose: 100.0 mg/kg/injection, schedule: Q07DX003 (ip), vehicle: Klucel (hydroxypropylcellulose) (HPC)) was 76 % of control, the T/C [5] was 81 % of control and 101 % of control and the T/C (dose: 200.0 mg/kg/injection, schedule: Q07DX003 (ip), vehicle: Klucel (hydroxypropylcellulose) (HPC)) was 88 % of control. For the same molecule, the T/C (dose: 400.0 mg/kg/injection, schedule: Q07DX003 (ip), vehicle: Klucel (hydroxypropylcellulose) (HPC)) was 45 % of control, the T/C (dose: 800.0 mg/kg/injection, schedule: Q07DX002 (ip), vehicle: Klucel (hydroxypropylcellulose) (HPC)) was 60 % of control and the T/C (dose: 1200.0 mg/kg/injection, schedule: Q07DX002 (ip), vehicle: Klucel (hydroxypropylcellulose) (HPC)) was 80 % of control.
Oc1c(Cl)cc(C(c2cc(Cl)c(O)c(Cl)c2)C(c2cc(Cl)c(O)c(Cl)c2)c2cc(Cl)c(O)c(Cl)c2)cc1Cl was tested, and the T/C [1] was 115 % of control and 99 % of control, the T/C [2] was 123 % of control and the T/C [3] was 96 % of control. For the same molecule, the T/C [4] was 95 % of control and 104 % of control, the T/C [5] was 63 % of control and 86 % of control and the T/C [6] was 57 % of control and 82 % of control.
C=Cc1cnc([N+](=O)[O-])n1C was tested, and the T/C [1] was 67 % of control and 84 % of control, the T/C [2] was 109 % of control and 97 % of control and the T/C [3] was 62 % of control and 69 % of control.
With COc1cccc(-c2cc(=O)c3cccc(CC(=O)O)c3o2)c1 the T/C (dose: 12.5 mg/kg/injection, schedule: Q07DX002 (ip), vehicle: saline) was 88 % of control, the T/C (dose: 25.0 mg/kg/injection, schedule: Q07DX002 (ip), vehicle: saline) was 97 % of control and the T/C (dose: 50.0 mg/kg/injection, schedule: Q07DX002 (ip), vehicle: saline) was 110 % of control. For the same molecule, the T/C [7] was 33 % of control.
For O=S(=O)(c1ccccc1)N1CN2CCN(C2)C1, the T/C [8] was 94 % of control and the T/C [9] was 62 % of control.
With CN=C(N)N/N=C(\C)c1ccc2oc3ccc(/C(C)=N/NC(N)=NC)cc3c2c1 the T/C [8] was 117 % of control, the T/C [9] was 100 % of control and the T/C [10] was 66 % of control.
With CCOC(=O)[C@]1(Br)CC[C@@]1(Br)C(=O)OCC the T/C [11] was 76 % of control, the T/C [9] was 71 % of control and 75 % of control and the T/C [12] was 78 % of control and 95 % of control and 96 % of control. The T/C (dose: 400.0 mg/kg/injection, schedule: Q07DX002 (ip), vehicle: saline with Tween-80) was 79 % of control and 80 % of control and 97 % of control and the T/C (dose: 800.0 mg/kg/injection, schedule: Q07DX002 (ip), vehicle: saline with Tween-80) was 113 % of control.
In the case of O=C(O)CCCc1ccc(N(CCCl)CCCl)cc1, the T/C (dose: 7.5 mg/kg/injection, schedule: Q07DX003 (ip), vehicle: saline with Tween-80) is reported as 103 % of control, the T/C (dose: 15.0 mg/kg/injection, schedule: Q07DX002 (ip), vehicle: Klucel (hydroxypropylcellulose) (HPC)) is reported as 62 % of control and 72 % of control and 82 % of control and the T/C (dose: 15.0 mg/kg/injection, schedule: Q07DX003 (ip), vehicle: saline with Tween-80) is reported as 37 % of control. The T/C (dose: 30.0 mg/kg/injection, schedule: Q07DX003 (ip), vehicle: saline with Tween-80) was 62 % of control and the T/C (dose: 60.0 mg/kg/injection, schedule: Q07DX002 (ip), vehicle: Klucel (hydroxypropylcellulose) (HPC)) was 69 % of control.
For CCCCCCCCCCCCCCCCCC(=O)Nc1ccn(C2OC(CO)C(O)C2O)c(=O)n1 (configuration not stated), the T/C [11] was 99 % of control, the T/C [9] was 35 % of control and 59 % of control and the T/C [10] was 25 % of control. The T/C [12] was 4 % of control.
For CC(C)[C@]12O[C@H]1[C@@H]1O[C@]13[C@]1(O[C@H]1C[C@H]1C4=C(C(=O)OC4)[C@@H](O)C[C@@]13C)[C@@H]2O, the T/C (dose: 25.0 micrograms/kg/injection, schedule: Q07DX002 (ip), vehicle: saline + alcohol) was 113 % of control, the T/C (dose: 100.0 micrograms/kg/injection, schedule: Q07DX002 (ip), vehicle: saline + alcohol) was 113 % of control and the T/C (dose: 200.0 micrograms/kg/injection, schedule: Q07DX002 (ip), vehicle: saline + alcohol) was 109 % of control. The T/C (dose: 400.0 micrograms/kg/injection, schedule: Q07DX002 (ip), vehicle: saline + alcohol) was 63 % of control.
In the case of Cc1nc(N)nc(N)c1-c1ccc(Cl)c(Cl)c1, the T/C (dose: 1.25 mg/kg/injection, schedule: Q07DX002 (ip), vehicle: saline) is reported as 106 % of control, the T/C [13] is reported as 81 % of control and 102 % of control and the T/C (dose: 5.0 mg/kg/injection, schedule: Q07DX002 (ip), vehicle: saline) is reported as 50 % of control and 72 % of control. The T/C (dose: 10.0 mg/kg/injection, schedule: Q07DX002 (ip), vehicle: saline) was 68 % of control and 69 % of control and 83 % of control, the T/C [14] was 67 % of control and the T/C (dose: 20.0 mg/kg/injection, schedule: Q07DX002 (ip), vehicle: suspension in saline) was 46 % of control. The T/C (dose: 80.0 mg/kg/injection, schedule: Q07DX002 (ip), vehicle: saline) was 55 % of control.
C=C1C(=O)OCC1C(=O)O (configuration not stated) was tested, and the T/C (dose: 4.0 mg/kg/injection, schedule: Q07DX002 (ip), vehicle: saline) was 290 % of control, the T/C (dose: 8.0 mg/kg/injection, schedule: Q07DX002 (ip), vehicle: saline) was 281 % of control and the T/C (dose: 16.0 mg/kg/injection, schedule: Q07DX002 (ip), vehicle: saline) was 297 % of control. The T/C (dose: 32.0 mg/kg/injection, schedule: Q07DX002 (ip), vehicle: saline) was 278 % of control and the T/C (dose: 64.0 mg/kg/injection, schedule: Q07DX002 (ip), vehicle: saline) was 344 % of control.
For COc1cc(OC)c(OC)cc1/C=C\c1ccnc2ccccc12, the T/C [1] was 93 % of control, the T/C [2] was 120 % of control and the T/C [3] was 160 % of control and 171 % of control. For the same molecule, the T/C [4] was 85 % of control and 97 % of control and the T/C [6] was 120 % of control.
For N=[N+]=CC(=O)OCC(N)C(=O)O (configuration not stated), the T/C (dose: 3.12 mg/kg/injection, schedule: Q07DX002 (ip), vehicle: water) was 97 % of control, the T/C (dose: 3.12 mg/kg/injection, schedule: Q07DX003 (ip), vehicle: clinical formulation) was 159 % of control and the T/C (dose: 6.25 mg/kg/injection, schedule: Q07DX002 (ip), vehicle: water) was 117 % of control. For the same molecule, the T/C (dose: 6.25 mg/kg/injection, schedule: Q07DX003 (ip), vehicle: clinical formulation) was 110 % of control, the T/C (dose: 12.5 mg/kg/injection, schedule: Q07DX003 (ip), vehicle: clinical formulation) was 88 % of control and the T/C (dose: 25.0 mg/kg/injection, schedule: Q07DX002 (ip), vehicle: water) was 99 % of control. The T/C (dose: 25.0 mg/kg/injection, schedule: Q07DX003 (ip), vehicle: clinical formulation) was 100 % of control and the T/C (dose: 50.0 mg/kg/injection, schedule: Q07DX002 (ip), vehicle: water) was 91 % of control.
CC[n+]1c(-c2ccccc2)c2cc(N)ccc2c2ccc(N)cc21 was tested, and the T/C [13] was 99 % of control and the T/C (dose: 20.0 mg/kg/injection, schedule: Q07DX002 (ip), vehicle: saline) was 118 % of control and 103 % of control.
For NC(=S)c1cn(C2OC(CO)C(O)C2O)c2ncnc(N)c12 (configuration not stated), the T/C (dose: 1.25 mg/kg/injection, schedule: Q07DX002 (ip), vehicle: suspension in saline) was 108 % of control, the T/C (dose: 2.5 mg/kg/injection, schedule: Q07DX002 (ip), vehicle: suspension in saline) was 81 % of control and the T/C (dose: 5.0 mg/kg/injection, schedule: Q07DX002 (ip), vehicle: suspension in saline) was 104 % of control. For the same molecule, the T/C [14] was 82 % of control.
In the case of N=c1nc2n(cc1F)[C@@H]1O[C@H](CO)[C@@H](O)[C@@H]1O2, the T/C [7] is reported as 118 % of control, the T/C (dose: 100.0 mg/kg/injection, schedule: Q07DX002 (ip), vehicle: suspension in saline) is reported as 117 % of control and the T/C (dose: 200.0 mg/kg/injection, schedule: Q07DX002 (ip), vehicle: saline) is reported as 193 % of control. For the same molecule, the T/C (dose: 200.0 mg/kg/injection, schedule: Q07DX002 (ip), vehicle: suspension in saline) was 93 % of control, the T/C (dose: 400.0 mg/kg/injection, schedule: Q07DX002 (ip), vehicle: suspension in saline) was 99 % of control and the T/C (dose: 800.0 mg/kg/injection, schedule: Q07DX002 (ip), vehicle: saline) was 102 % of control. The T/C (dose: 1600.0 mg/kg/injection, schedule: Q07DX002 (ip), vehicle: saline) was 53 % of control and the T/C (dose: 1600.0 mg/kg/injection, schedule: Q07DX002 (ip), vehicle: suspension in saline) was 40 % of control.
